Tested on: Subjects With Active Crohn's Disease
Assay: Atherogenic index, Study 5 (Crohn's disease)
Assay type: in vivo, human
Conditions: for Atherogenic index Mean CFB - 10 weeks results / Atherogenic index Mean percentage CFB - 10 weeks results / Atherogenic index Median CFB - 10 weeks results: 200 mg q.d.
Source text: As used herein, the term ‘atherogenic index’ refers to
This is a double-blind, randomized, placebo-controlled, multi-centre Phase 2 study to investigate the efficacy and safety of Compound 1 administered once daily for the treatment of active CD with evidence of mucosal ulceration. The pharmacokinetics (including a PK substudy) and pharmacodynamics of Compound 1 and metabolite in CD will also be characterised.
A total of 180 eligible subjects will be randomized to receive Compound 1 or placebo in addition to their stable background treatment (eg, corticosteroids, aminosalicylates, or CD-related antibiotics). The study will consist of 2 parts, with total treatment duration of 20 weeks. Randomization in Part 1 will be stratified according the subject's previous anti-TNF exposure/response, CRP level at Screening, and oral corticosteroid use at visit Day −1.
After the first 10 weeks of treatment in Part 1, patients will be re-randomized for Part 2 as shown in the diagram below and will be stratified according to the subject's clinical response, previous anti-TNF exposure/response, and oral corticosteroid use at visit Day −1.
The atherogenic index has been identified to be a good predictor of cardiovascular disorders risks and is calculated as follows: […]

[1] = 200 mg q.d. continued week 10 to 20, week 2
[2] = 200 mg q.d. continued week 10 to 20, week 4
[3] = 200 mg q.d. continued week 10 to 20, week 6
[4] = 200 mg q.d. continued week 10 to 20, week 10
[5] = 200 mg q.d. continued week 10 to 20, week 12
[6] = 200 mg q.d. continued week 10 to 20, week 16
[7] = 200 mg q.d. continued week 10 to 20, week 20
[8] = 200 mg q.d. week 0 to 10, to 100 mg q.d. week 10 to 20, week 2
[9] = 200 mg q.d. week 0 to 10, to 100 mg q.d. week 10 to 20, week 4
[10] = 200 mg q.d. week 0 to 10, to 100 mg q.d. week 10 to 20, week 6
[11] = 200 mg q.d. week 0 to 10, to 100 mg q.d. week 10 to 20, week 10
[12] = 200 mg q.d. week 0 to 10, to 100 mg q.d. week 10 to 20, week 12
[13] = 200 mg q.d. week 0 to 10, to 100 mg q.d. week 10 to 20, week 16
[14] = 200 mg q.d. week 0 to 10, to 100 mg q.d. week 10 to 20, week 20
[15] = 200 mg q.d. week 0 to 10, to placebo week 10 to 20, week 2
[16] = 200 mg q.d. week 0 to 10, to placebo week 10 to 20, week 4
[17] = 200 mg q.d. week 0 to 10, to placebo week 10 to 20, week 6
[18] = 200 mg q.d. week 0 to 10, to placebo week 10 to 20, week 10
[19] = 200 mg q.d. week 0 to 10, to placebo week 10 to 20, week 12
[20] = 200 mg q.d. week 0 to 10, to placebo week 10 to 20, week 16
[21] = 200 mg q.d. week 0 to 10, to placebo week 10 to 20, week 20
[22] = placebo week 0 to 10, to 100 mg q.d. week 10 to 20, week 12
[23] = placebo week 0 to 10, to 100 mg q.d. week 10 to 20, week 16
[24] = placebo week 0 to 10, to 100 mg q.d. week 10 to 20, week 20

O=C(Nc1nc2cccc(-c3ccc(CN4CCS(=O)(=O)CC4)cc3)n2n1)C1CC1 [Compound 1, cyclopropanecarboxylic acid {5-[4-(1,1-dioxo-thiomorpholin-4-ylmethyl)-phenyl]-[1,2,4]triazolo[1,5-a]pyridin-2yl}-amide]
Atherogenic index Mean percentage CFB - 20 weeks results [1]: −6.93% | Atherogenic index Median CFB - 20 weeks results [1]: -0.25 mmol/L | Atherogenic index Mean percentage CFB - 20 weeks results [2]: −6.67% | Atherogenic index Median CFB - 20 weeks results [2]: -0.21 mmol/L | Atherogenic index Mean percentage CFB - 20 weeks results [3]: −8.51% | Atherogenic index Median CFB - 20 weeks results [3]: -0.22 mmol/L | Atherogenic index Mean percentage CFB - 20 weeks results [4]: −3.49% | Atherogenic index Median CFB - 20 weeks results [4]: -0.13 mmol/L | Atherogenic index Mean percentage CFB - 20 weeks results [5]: −1.27% | Atherogenic index Median CFB - 20 weeks results [5]: -0.13 mmol/L | Atherogenic index Mean percentage CFB - 20 weeks results [6]: −0.22% | Atherogenic index Median CFB - 20 weeks results [6]: -0.06 mmol/L | Atherogenic index Mean percentage CFB - 20 weeks results [7]: 3.38% | Atherogenic index Median CFB - 20 weeks results [7]: 0.01 mmol/L | Atherogenic index Mean percentage CFB - 20 weeks results [8]: −12.02% | Atherogenic index Median CFB - 20 weeks results [8]: -0.37 mmol/L | Atherogenic index Mean percentage CFB - 20 weeks results [9]: −12.95% | Atherogenic index Median CFB - 20 weeks results [9]: -0.38 mmol/L | Atherogenic index Mean percentage CFB - 20 weeks results [10]: −13.82% | Atherogenic index Median CFB - 20 weeks results [10]: -0.48 mmol/L | Atherogenic index Mean percentage CFB - 20 weeks results [11]: −11.54% | Atherogenic index Median CFB - 20 weeks results [11]: -0.48 mmol/L | Atherogenic index Mean percentage CFB - 20 weeks results [12]: −5.12% | Atherogenic index Median CFB - 20 weeks results [12]: -0.25 mmol/L | Atherogenic index Mean percentage CFB - 20 weeks results [13]: −4.54% | Atherogenic index Median CFB - 20 weeks results [13]: -0.15 mmol/L | Atherogenic index Mean percentage CFB - 20 weeks results [14]: −8.14% | Atherogenic index Median CFB - 20 weeks results [14]: -0.39 mmol/L | Atherogenic index Mean percentage CFB - 20 weeks results [15]: −7.38% | Atherogenic index Median CFB - 20 weeks results [15]: -0.31 mmol/L | Atherogenic index Mean percentage CFB - 20 weeks results [16]: −10.10% | Atherogenic index Median CFB - 20 weeks results [16]: -0.29 mmol/L | Atherogenic index Mean percentage CFB - 20 weeks results [17]: −2.55% | Atherogenic index Median CFB - 20 weeks results [17]: -0.14 mmol/L | Atherogenic index Mean percentage CFB - 20 weeks results [18]: −5.14% | Atherogenic index Median CFB - 20 weeks results [18]: -0.19 mmol/L | Atherogenic index Mean percentage CFB - 20 weeks results [19]: 9.34% | Atherogenic index Median CFB - 20 weeks results [19]: 0.14 mmol/L | Atherogenic index Mean percentage CFB - 20 weeks results [20]: 19.14% | Atherogenic index Median CFB - 20 weeks results [20]: 0.35 mmol/L | Atherogenic index Mean percentage CFB - 20 weeks results [21]: 19.82% | Atherogenic index Median CFB - 20 weeks results [21]: 0.38 mmol/L | Atherogenic index Mean CFB - 10 weeks results (week 2): -0.31 mmol/L | Atherogenic index Mean percentage CFB - 10 weeks results (week 2): −8.20% | Atherogenic index Median CFB - 10 weeks results (week 2): -0.31 mmol/L | Atherogenic index Mean CFB - 10 weeks results (week 4): -0.33 mmol/L | Atherogenic index Mean percentage CFB - 10 weeks results (week 4): −8.79% | Atherogenic index Median CFB - 10 weeks results (week 4): -0.28 mmol/L | Atherogenic index Mean CFB - 10 weeks results (week 6): -0.32 mmol/L | Atherogenic index Mean percentage CFB - 10 weeks results (week 6): −8.69% | Atherogenic index Median CFB - 10 weeks results (week 6): -0.29 mmol/L | Atherogenic index Mean CFB - 10 weeks results (week 10): -0.25 mmol/L | Atherogenic index Mean percentage CFB - 10 weeks results (week 10): −5.98% | Atherogenic index Median CFB - 10 weeks results (week 10): -0.21 mmol/L | Atherogenic index Mean percentage CFB - 20 weeks results [22]: 0.84% | Atherogenic index Median CFB - 20 weeks results [22]: -0.10 mmol/L | Atherogenic index Mean percentage CFB - 20 weeks results [23]: −0.97% | Atherogenic index Median CFB - 20 weeks results [23]: -0.25 mmol/L | Atherogenic index Mean percentage CFB - 20 weeks results [24]: 3.17% | Atherogenic index Median CFB - 20 weeks results [24]: -0.10 mmol/L
